From US10770169B2, “Method of providing a treatment to a subject based on a dynamic pathway map” (THE REGENTS OF THE UNIVERSITY OF CALIFORNIA, priority 2010, dated 2020)
Read-outs that look alike come from different tables or passages of the source.

Test system: panel of 55 breast cancer cell lines
Test: Cell growth inhibition assay (Cell Titer Glo, 72 h, 9 doses; GI50, TGI, LC50)
Type: cell-based, human
Conditions: for GI50: Homo sapiens, read-out: GI50 (converted)
[1] = 600MPE cell line, censored GI50 values
[2] = AU565, AU565 cell line, censored GI50 values
[3] = BT-20, BT20 cell line, censored GI50 values
[4] = BT-474, BT474 cell line, censored GI50 values
[5] = BT-483, BT483 cell line, censored GI50 values
[6] = CAMA-1, CAMA1 cell line, censored GI50 values
[7] = HCC38, HCC38 cell line, censored GI50 values
[8] = HCC70, HCC70 cell line, censored GI50 values
[9] = HCC1143, HCC1143 cell line, censored GI50 values
[10] = HCC1187, HCC1187 cell line, censored GI50 values
[11] = HCC1419, HCC1419 cell line, censored GI50 values
[12] = HCC1428, HCC1428 cell line, censored GI50 values
[13] = HCC1500, HCC1500 cell line, censored GI50 values
[14] = HCC1806, HCC1806 cell line, censored GI50 values
[15] = HCC1937, HCC1937 cell line, censored GI50 values
[16] = HCC1954, HCC1954 cell line, censored GI50 values
[17] = HCC2185 cell line, censored GI50 values
[18] = HCC3153 cell line, censored GI50 values
[19] = MCF7, MCF7 cell line, censored GI50 values
[20] = MDA-MB-175-VII, MDAMB175VII cell line, censored GI50 values
[21] = MDA-MB-361, MDAMB361 cell line, censored GI50 values
[22] = MDA-MB-436, MDAMB436 cell line, censored GI50 values
[23] = MDA-MB-468, MDAMB468 cell line, censored GI50 values
[24] = SK-BR-3, SKBR3 cell line, censored GI50 values
[25] = SUM52PE, SUM52PE cell line, censored GI50 values
[26] = SUM149PT, SUM149PT cell line, censored GI50 values
[27] = SUM1315MO2, SUM1315MO2 cell line, censored GI50 values
[28] = SUM-159-PT, SUM159PT cell line, censored GI50 values
[29] = T47D, T47D cell line, censored GI50 values
[30] = ZR-75-1, ZR751 cell line, censored GI50 values

## CNC(=O)c1cc(Oc2ccc(NC(=O)Nc3ccc(Cl)c(C(F)(F)F)c3)cc2)ccn1 [Sorafenib]
[1]
  GI50: 45.7 µM
[2]
  GI50: 178 µM
AU565, cell line AU565
  GI50: 178 µM
[3]
  GI50: 63.1 µM
BT-20, cell line BT20
  GI50: 63.1 µM
[4]
  GI50: 100 µM
BT-474, cell line BT474
  GI50: 100 µM
[5]
  GI50: 11.7 µM
BT-483, cell line BT483
  GI50: 11.7 µM
BT-549, BT549 cell line, censored GI50 values
  GI50: 120 µM
BT-549, cell line BT549
  GI50: 120 µM
[6]
  GI50: 95.5 µM
CAMA-1, cell line CAMA1
  GI50: 95.5 µM
[7]
  GI50: 87.1 µM
HCC38, cell line HCC38
  GI50: 87.1 µM
[8]
  GI50: 35.5 µM
HCC70, cell line HCC70
  GI50: 35.5 µM
HCC202, HCC202 cell line, censored GI50 values
  GI50: 72.4 µM
HCC202, cell line HCC202
  GI50: 72.4 µM
[9]
  GI50: 58.9 µM
HCC1143, cell line HCC1143
  GI50: 58.9 µM
[10]
  GI50: 32.4 µM
HCC1187, cell line HCC1187
  GI50: 32.4 µM
HCC1395, HCC1395 cell line, censored GI50 values
  GI50: 47.9 µM
HCC1395, cell line HCC1395
  GI50: 47.9 µM
[11]
  GI50: 417 µM
HCC1419, cell line HCC1419
  GI50: 417 µM
[12]
  GI50: 45.7 µM
HCC1428, cell line HCC1428
  GI50: 45.7 µM
[13]
  GI50: 178 µM
HCC1500, cell line HCC1500
  GI50: 178 µM
[14]
  GI50: 148 µM
HCC1806, cell line HCC1806
  GI50: 148 µM
[15]
  GI50: 513 µM
HCC1937, cell line HCC1937
  GI50: 513 µM
[16]
  GI50: 55 µM
HCC1954, cell line HCC1954
  GI50: 55 µM
[17]
  GI50: 14.8 µM
[18]
  GI50: 120 µM
[19]
  GI50: 64.6 µM
MCF7, cell line MCF7
  GI50: 64.6 µM
MDA-MB-134-VI, MDAMB134VI cell line, censored GI50 values
  GI50: 28.8 µM
MDA-MB-157, MDAMB157 cell line, censored GI50 values
  GI50: 240 µM
[20]
  GI50: 81.3 µM
MDA-MB-231, MDAMB231 cell line, censored GI50 values
  GI50: 89.1 µM
[21]
  GI50: 60.3 µM
MDA-MB-415, MDAMB415 cell line, censored GI50 values
  GI50: 95.5 µM
[22]
  GI50: 51.3 µM
[23]
  GI50: 158 µM
[24]
  GI50: 70.8 µM
[25]
  GI50: 1.7 µM
[26]
  GI50: 15.8 µM
SUM185PE, SUM185PE cell line, censored GI50 values
  GI50: 1.48 µM
SUM225CWN, SUM225CWN cell line, censored GI50 values
  GI50: 40.7 µM
[27]
  GI50: 186 µM
[28]
  GI50: 21.9 µM
[29]
  GI50: 25.7 µM
UACC-893, UACC893 cell line, censored GI50 values
  GI50: 331 µM
[30]
  GI50: 45.7 µM
Cell line 600MPE
  GI50: 45.7 µM
Cell line HCC2185
  GI50: 14.8 µM
Cell line HCC3153
  GI50: 120 µM

## COc1cc(Nc2c(C#N)cnc3cc(OCCCN4CCN(C)CC4)c(OC)cc23)c(Cl)cc1Cl [Bosutinib]
[1]
  GI50: 8.91 µM
[2]
  GI50: 2.14 µM
AU565, cell line AU565
  GI50: 2.14 µM
[3]
  GI50: 1.38 µM
BT-20, cell line BT20
  GI50: 1.38 µM
[4]
  GI50: 0.724 µM
BT-474, cell line BT474
  GI50: 0.724 µM
[5]
  GI50: 3.55 µM
BT-483, cell line BT483
  GI50: 3.55 µM
[6]
  GI50: 3.24 µM
CAMA-1, cell line CAMA1
  GI50: 3.24 µM
[7]
  GI50: 0.891 µM
HCC38, cell line HCC38
  GI50: 0.891 µM
[8]
  GI50: 0.891 µM
HCC70, cell line HCC70
  GI50: 0.891 µM
[9]
  GI50: 4.9 µM
HCC1143, cell line HCC1143
  GI50: 4.9 µM
[10]
  GI50: 3.16 µM
HCC1187, cell line HCC1187
  GI50: 3.16 µM
[11]
  GI50: 0.759 µM
HCC1419, cell line HCC1419
  GI50: 0.759 µM
[12]
  GI50: 3.89 µM
HCC1428, cell line HCC1428
  GI50: 3.89 µM
[13]
  GI50: 2.57 µM
HCC1500, cell line HCC1500
  GI50: 2.57 µM
[14]
  GI50: 2.09 µM
HCC1806, cell line HCC1806
  GI50: 2.09 µM
[15]
  GI50: 1.45 µM
HCC1937, cell line HCC1937
  GI50: 1.45 µM
[16]
  GI50: 1.17 µM
HCC1954, cell line HCC1954
  GI50: 1.17 µM
[17]
  GI50: 5.01 µM
[18]
  GI50: 3.8 µM
LY2 cell line, censored GI50 values
  GI50: 2.45 µM
[19]
  GI50: 2.57 µM
MCF7, cell line MCF7
  GI50: 2.57 µM
[20]
  GI50: 1.07 µM
[21]
  GI50: 1.51 µM
[22]
  GI50: 5.01 µM
MDA-MB-453, MDAMB453 cell line, censored GI50 values
  GI50: 2.34 µM
[23]
  GI50: 2.57 µM
[24]
  GI50: 3.89 µM
[25]
  GI50: 1.45 µM
[26]
  GI50: 0.759 µM
[27]
  GI50: 0.871 µM
[28]
  GI50: 1.38 µM
[29]
  GI50: 5.62 µM
UACC-812, UACC812 cell line, censored GI50 values
  GI50: 2.75 µM
[30]
  GI50: 14.1 µM
ZR-75B, ZR75B cell line, censored GI50 values
  GI50: 7.08 µM
Cell line 600MPE
  GI50: 8.91 µM
Cell line HCC2185
  GI50: 5.01 µM
Cell line HCC3153
  GI50: 3.8 µM
Cell line LY2
  GI50: 2.45 µM

## O=C(Nc1cc(Cl)cc2c1[nH]c1cnccc12)c1cccnc1 [PS1145]
Across the cell line panel
  variability in cell line response: variability in cell line response was minimal
